Marks after values point to notes of the source that are not given here.
Legend:
preadipocytes (3T3-L1) = experiment: Western blot of PPAR-δ, p-AMPK and PGC-1α in midodrine-treated adipocytes; type: cell-based, mouse; conditions: midodrine-treated adipocytes (3T3-L1), FIG. 8B
Description: (§1) The 3T3-L1 cells were grown in a medium (DMEM) containing 10% FBS (fetal bovine serum) and 1% antibiotic until 100% and then cultured for 48 hours after replacing the medium with a fresh medium. After adding a differentiation medium and the drug, the cells were cultured for 48 hours. The composition of the differentiation medium was as follows: 0.0125 μmol/mL dexamethasone, 12.5 μmol/mL 3-isobutyl-1-methylxanthine, 10 μg/mL insulin, 10% FBS. After treating with the differentiation medium for 48 hours, the medium was replaced with an insulin medium containing 10 μg/mL insulin and 10% FBS and then treated for 48-96 hours. Then, after replacing the medium with a normal medium containing 10% FBS only, the cells were cultured for 24-48 hours and then used for experiments.
In addition, when western blotting was conducted on the midodrine-treated adipocytes according to the method of Example 2-3, the expression of […], p-AMPK and PGC-1α proteins suppressing fat synthesis/accumulation was increased as shown in FIG. 8B.

[1] = system: mouse skeletal muscle cells (C2C12); experiment: Western blot of p-AMPK and PPAR-δ in midodrine-treated skeletal muscle cells; type: cell-based; conditions: FIG. 1
Description: (§2) The L6 and HL1 cells were grown in a medium (DMEM) containing 10% FBS (fetal bovine serum) and 1% antibiotic until about 80% confluence, and then the medium was replaced with a medium containing 1% FBS for differentiation for 4 days. The drug was treated on day 3 of differentiation. All in-vitro experiments using the L6 and HL1 cells were conducted 24 hours after the drug treatment.
(§3) In order to investigate the effect of α1-AR stimulation on AMPK and AMPK phosphorylation (activation) in vitro, the mouse skeletal muscle cells […] and the mouse cardiac muscle cells (HL1) cultured in Example 1-1 were treated with 30 μM of midodrine, which is an α1-AR agonist, and then western blot was conducted as described in Example 2-3.

[2] = system: spontaneously hypertensive rat (SHR); experiment: Cardiac function by M-mode echocardiography and heart rate in SHR; conditions: for Diastolic left ventricular inner diameter / Diastolic left ventricular posterior wall / Diastolic left ventricular wall / Left ventricular ejection fraction / Left ventricular fractional shortening / Left ventricular mass measured by ASE / Systolic left ventricular inner diameter / left ventricular performance: 8-week-old SHR, echocardiography; for Diastolic left ventricular inner diameter / Diastolic left ventricular posterior wall / Diastolic left ventricular wall / Left ventricular ejection fraction / Left ventricular fractional shortening / Left ventricular mass measured by ASE / Systolic left ventricular inner diameter: 4 weeks in drinking water (midodrine 0.3 mg/kg/day, atenolol 1 mg/kg/day), mean ± SD; for left ventricular performance: compared with unadministered control group IV
[3] = system: AMPK/PPAR-δ/PGC1α proteins; experiment: Western blot of AMPK, PPAR-δ and PGC-1α proteins in cardiac muscle, skeletal muscle, fat and liver of SHR
[4] = Blood adiponectin by ELISA, normalized to visceral fat weight; type: in vivo, spontaneously hypertensive rat (SHR); conditions: SHR, 4 weeks in drinking water, mean ± SD
Source text: The measured adiponectin level was normalized to the visceral fat weight (g).

[5] = system: SDH (succinate dehydrogenase); experiment: Enzymatic activity of SDH in skeletal muscle of SHR; type: in vivo, spontaneously hypertensive rat (SHR); conditions: among groups I-IV, FIG. 3A
Description: After adding 10 μL of protease inhibitor cocktail per 1 mL of PBS (phosphate-buffered saline) to each well (500 μL), 410 μL of a culture solution prepared by mixing 1 M phosphate buffer (25 μL×25=625 μL), 0.2 M sodium succinate (125 μL×25=3125 μL), NBT (25 μL×25=625 μL) and D.W. (235 μL×25=5875 μL) per well was heated to 37° C. for 20 minutes. […] After conducting centrifugation at 13000 rpm and 4° C. for 5 minutes, the supernatant was recovered and transferred to a fresh tube. After adding 410 μL of a culture solution to a tube, enzymatic reaction was conducted by adding 90 μL of the sample. After adding 410 μL of distilled water (DW) to another tube and adding 90 μL of the sample, the absorbance of the dilute was measured. After adding the enzymatic reaction tube and the another tube in water bath at 37° C., respectively, reaction was conducted for 30 minutes. The reaction was terminated by putting the tube in ice. After adding 200 μL to each well of a 96-well plate, absorbance was measured at 550 nm. Then, the enzymatic activity of succinate dehydrogenase (SDH) was measured by the following equation.
Enzymatic activity=(absorbance of enzymatic reaction solution−absorbance of diluted enzymatic reaction solution)/protein content (Bradford 595 nm)

cytochrome c oxidase = experiment: Immunohistochemical staining for cytochrome c oxidase in skeletal muscle tissue of SHR; type: in vivo, spontaneously hypertensive rat (SHR); conditions: among groups I-IV, FIG. 3B
[6] = system: mouse cardiac muscle cells (HL1); experiment: Western blot of p-AMPK and PPAR-δ in midodrine-treated cardiac muscle cells; type: cell-based; conditions: FIG. 1
Description: as §2, §3

[7] = system: mouse-derived preadipocytes (3T3-L1); experiment: Fat content in adipocytes observed by microscope; type: cell-based; conditions: FIG. 8A
Description: as §1

[8] = system: HMG-CoA reductase protein (HMGCR); experiment: Expression of HMG-CoA reductase protein in liver of SHR; type: in vivo, spontaneously hypertensive rat (SHR); conditions: among rat groups, FIG. 7
[9] = ATP level in tissue by ELISA; type: in vivo, spontaneously hypertensive rat (SHR); conditions: SHR, compared to control SHRs, FIG. 4
Description: 0.02 g of liver tissue isolated from the rats of Example 1-2 was homogenized in 500 μL of PBS. The homogenate was centrifuged at 1500×g (or 5000 rpm) for 15 minutes and the supernatant was recovered. After adding 100 μL of standard materials or samples to adequate wells of a pre-coated microtiter plate, 10 μL of the remaining solution was added to the sample. After adding 50 μL of the conjugate to each well and then mixing, the plate was covered and incubation was conducted at 37° C. for 1 hour. After adding 50 μL of each of substrates A and B to each well, incubation was conducted at 37° C. for 15 minutes. After adding a stop solution to each well, optical density was measured at 450 nm using a microplate reader.
The ATP level in the heart, skeletal muscle and liver of basal 4-week-old rat (I), midodrine-administered rat (II), atenolol-administered rat (III) and unadministered 8-week-old control rat (IV) was measured by ELISA according to the method of Example 2-1.

[10] = Body weight, heart weight and abdominal fat weight in SHR; type: in vivo, spontaneously hypertensive rat (SHR)
Description: Body weight was measured for the same rats whose cardiac function was measured.
When the body weight and the weight of abdominal fat (visceral fat) were measured for the midodrine-administered rat (II), atenolol-administered rat (III) and unadministered 8-week-old hypertensive control rat (IV) of Example 1-2, midodrine administration decreased both the body weight and abdominal fat as shown in FIG. 9.

[11] = 8-week-old SHR, 4 weeks in drinking water (midodrine 0.3 mg/kg/day, atenolol 1 mg/kg/day), mean ± SD

| SMILES | Diastolic left ventricular inner diameter [2] | Diastolic left ventricular posterior wall [2] | Diastolic left ventricular wall [2] | Left ventricular ejection fraction [2] | Left ventricular fractional shortening [2] | Left ventricular mass measured by ASE [2] | Systolic left ventricular inner diameter [2] | left ventricular performance [2] | Adiponectin (serum level per weight of visceral fat) [4] | expression level of HMG-CoA reductase protein (HMGCR) in the liver [8] | ATP level in heart tissue [9] | Body weight [10, 11] | Hear weight [10, 11] | also measured |
| --- | --- | --- | --- | --- | --- | --- | --- | --- | --- | --- | --- | --- | --- | --- |
| COc1ccc(OC)c(C(O)CNC(=O)CN)c1 (racemic) [Midodrine, (RS)—N-[2-(2,5-dimethoxyphenyl)-2-hydroxyethyl]glycinamide] | 6.06 ± 0.42^a mm | 1.54 ± 0.13^a mm | 1.46 ± 0.13^a mm | 81.55 ± 6.12^a % | 45.48 ± 6.25^a % | 1.04 ± 0.06 g | 3.32 ± 0.54^a mm | higher | 7585.8 ± 182.3^b ng/mL/g | the lowest | higher | 238.24 ± 11.69^a g | 1.47 ± 0.16^a g | expression of PGC-1α protein (preadipocytes (3T3-L1)): increased; expression of PPAR-5 protein (preadipocytes (3T3-L1)): increased; expression of p-AMPK protein (preadipocytes (3T3-L1)): increased; expression of PPAR-δ protein [1]: increases; expression of phosphorylated AMPK ([1]; midodrine 30 μM): increased; Left ventricular mass measured by ASE ([2]; listed as group II): the lowest; cardiac hypertrophy or further increase in blood pressure ([2]; SHR, summary statement, no blood pressure method described): without cardiac hypertrophy or further increase in blood pressure; AMPK expression in cardiac muscle ([3]; 4 weeks in drinking water, compared to control group IV, FIG. 2B): remarkably higher; AMPK expression in skeletal muscle ([3]; 4 weeks in drinking water, compared to control group IV, FIG. 2C): remarkably higher; AMPK expression in fat ([3]; 4 weeks in drinking water, compared to control group IV, FIG. 2D): remarkably higher; expression level of the phosphorylated AMPK protein in the liver ([3]; among groups I-IV, FIG. 2E): the highest; activation and expression of AMPK, PPAR-δ and PGC-1α in the heart, skeletal muscle and liver ([3]; summary statement): induces activation and increased expression; Adiponectin (serum level per weight of visceral fat) ([4]; listed as group II): remarkably higher; enzymatic activity of SDH in skeletal muscle [5]: the highest increase; cytochrome c oxidase immunohistochemical staining in skeletal muscle tissue (cytochrome c oxidase): the highest increase; expression of PPAR-δ protein [6]: increases; expression and phosphorylation of AMPK ([6]; midodrine 30 μM): resulted in the expression and phosphorylation of AMPK; fat content in adipocytes ([7]; 3T3-L1, 30 μM/L midodrine, microscope): decreased; Body weight ([10]; SHR groups II, III and IV, FIG. 9 (A)): decreased; weight of abdominal fat (visceral fat) ([10]; SHR groups II, III and IV, FIG. 9 (B)): decreased |
| CC(C)NCC(O)COc1ccc(CC(N)=O)cc1 (stereo not shown) [Atenolol, atenolol] | 6.33 ± 0.35^a mm | 1.67 ± 0.16 mm | 1.50 ± 0.13^a mm | 82.00 ± 5.31^a % | 45.70 ± 5.82^a % | 1.10 ± 0.07^a g | 3.43 ± 0.28^a mm | higher | 6136.5 ± 574.7^b,c ng/mL/g | the lowest | higher | 296.46 ± 16.73^b g | 1.47 ± 0.15^a g | heart rate ([2]; SHR from 4 weeks of age, measured over 1 month, at the end of the experiment, among three groups, FIG. 6): the lowest; Body weight ([10]; 8-week-old SHR, 4 weeks in drinking water (midodrine 0.3 mg/kg/day, atenolol 1 mg/kg/day), mean ± SD, listed as group III): the highest |
| COC(=O)c1sccc1S(=O)(=O)Nc1ccc(Nc2ccccc2)cc1OC [GSK0660] | – | – | – | – | – | – | – | – | – | – | – | – | – | effect on fat content in adipocytes when GSK0660 is added to midodrine ([7]; 3T3-L1, 30 μM/L midodrine + 50 μM/L GSK0660 mixture (1:2 (w/w))): the effect of midodrine was decreased |

Reference: patent US20190240172A1, “PHARMACEUTICAL COMPOSITION FOR PREVENTING OR TREATING DIABETES AND/OR […] COMPRISING MIDODRINE OR PHARMACEUTICALLY ACCEPTABLE SALT THEREOF AS ACTIVE INGREDIENT” (Cellvertics Co., Ltd., priority 2016, published 2019)
